# Results from ChEMBL document CHEMBL1201862, “PubChem BioAssay data set” (2004).
# Values joined by “and” are separate entries in the source; they are usually repeats but may differ in a detail not shown here. Equal entries are not always repeated. Active and inactive are the calls of the source.
# What was measured:
# [1] = biological target: T1, Heat shock factor protein 1 (Mus musculus, UniProt P38532); test: decrease of HSF1-responsive luciferase luminescence – cell-based, NIH3T3, dose retest, confirmation (AID 2382); format: functional;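 further: NIH3T3 fibroblasts with HSF1-driven luciferase reporter stressed by proteasome inhibitor MG132; luminescence from HSF1-driven luciferase expression after 8 hours of MG132 stress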
# T1 sequence (P38532 whole entry): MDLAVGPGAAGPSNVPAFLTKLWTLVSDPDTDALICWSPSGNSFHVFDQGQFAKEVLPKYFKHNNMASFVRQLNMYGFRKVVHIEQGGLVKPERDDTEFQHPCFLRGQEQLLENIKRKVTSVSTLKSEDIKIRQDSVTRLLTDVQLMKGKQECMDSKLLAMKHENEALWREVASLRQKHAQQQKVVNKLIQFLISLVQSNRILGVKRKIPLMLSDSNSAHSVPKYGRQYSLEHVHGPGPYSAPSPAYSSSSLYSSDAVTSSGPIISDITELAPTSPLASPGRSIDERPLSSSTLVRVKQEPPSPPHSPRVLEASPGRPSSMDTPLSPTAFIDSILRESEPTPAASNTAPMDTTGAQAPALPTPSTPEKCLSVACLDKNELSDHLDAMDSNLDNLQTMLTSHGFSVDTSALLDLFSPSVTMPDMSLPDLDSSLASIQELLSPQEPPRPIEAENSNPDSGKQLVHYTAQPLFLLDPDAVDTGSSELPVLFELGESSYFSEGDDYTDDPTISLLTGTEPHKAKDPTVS
# [2] = Trypanosoma cruzi growth suppression in host cells – NIH3T3 host cells, beta-gal luminescence, confirmation (AID 2044); format: functional, cell-based;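 further: intracellular parasites grown in NIH/3T3 mouse fibroblasts as host cells; luminescent beta-galactosidase reporter signal from transgenic T. cruzi replicating inside host cells; inhibitors lower the luminescence signal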
# [3] = NIH3T3 cell viability loss – ATP luminescence, mouse fibroblasts, counter-screen, dose response (AID 2010); format: functional, cell-based;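 further: cells exposed to compound for about 90 hours before reading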
# Cytochrome P450 2C9 = Cytochrome P450 2C9 (Homo sapiens, UniProt P11712)
# Cytochrome P450 2C9, sequence (P11712 whole entry): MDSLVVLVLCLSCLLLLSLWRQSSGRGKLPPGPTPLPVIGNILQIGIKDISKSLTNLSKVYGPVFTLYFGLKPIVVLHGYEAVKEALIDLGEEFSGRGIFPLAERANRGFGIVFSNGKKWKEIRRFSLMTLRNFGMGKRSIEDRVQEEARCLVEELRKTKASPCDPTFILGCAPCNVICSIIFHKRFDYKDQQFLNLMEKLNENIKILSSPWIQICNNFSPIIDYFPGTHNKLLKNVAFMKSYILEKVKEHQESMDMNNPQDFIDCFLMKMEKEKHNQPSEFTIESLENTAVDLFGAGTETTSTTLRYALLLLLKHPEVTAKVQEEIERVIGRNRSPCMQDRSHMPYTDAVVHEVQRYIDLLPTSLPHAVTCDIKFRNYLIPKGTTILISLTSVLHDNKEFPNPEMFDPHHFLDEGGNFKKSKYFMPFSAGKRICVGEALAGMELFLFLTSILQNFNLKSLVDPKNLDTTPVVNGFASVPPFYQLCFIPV
# [4] = Luminescence Cell-Based Dose Retest to Confirm Inhibitors of Cancer Stem Cells. [Related pubchem assays (depositor defined):AID2717, AID2721]; format: functional; conditions: Homo sapiens
# Cytochrome P450 3A4 = Cytochrome P450 3A4 (Homo sapiens, UniProt P08684);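 further: CYP3A4 tested as one member of a cytochrome P450 panel screen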
# Cytochrome P450 3A4, sequence (P08684 whole entry): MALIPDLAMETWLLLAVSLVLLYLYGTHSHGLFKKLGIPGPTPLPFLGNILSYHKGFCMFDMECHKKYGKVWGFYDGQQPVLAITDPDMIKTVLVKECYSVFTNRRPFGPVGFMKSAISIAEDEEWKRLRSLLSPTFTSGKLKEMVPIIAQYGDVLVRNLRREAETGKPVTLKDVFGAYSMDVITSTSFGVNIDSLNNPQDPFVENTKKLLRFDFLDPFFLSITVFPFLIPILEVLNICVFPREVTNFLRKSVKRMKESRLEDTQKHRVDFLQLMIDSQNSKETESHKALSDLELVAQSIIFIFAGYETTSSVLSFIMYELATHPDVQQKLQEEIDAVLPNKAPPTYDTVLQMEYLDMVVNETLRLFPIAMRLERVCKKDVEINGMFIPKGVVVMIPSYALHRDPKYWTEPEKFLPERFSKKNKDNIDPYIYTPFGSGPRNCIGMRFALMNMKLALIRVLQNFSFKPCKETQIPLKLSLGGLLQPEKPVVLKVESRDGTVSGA
smiles,measurement,setting,value
CCN(CC(=O)Nc1ccc(NC(C)=O)cc1)C(=O)C12CC3CC(CC(Cl)(C3)C1)C2,EC50,[1],> 195 µM (not active)
CCOc1cc(C#N)c(NC(=O)c2cccnc2Cl)cc1OCC,EC50,[1],> 195 µM (not active)
CC(C)c1ccc(CNCCCSc2ncccn2)cc1,EC50,[2],0.163 µM (active)
same,EC50,[3],> 30 µM (not active)
CCC(C)NC(=O)CN1C(=O)CN=C(c2ccccc2)c2ccccc21 (stereo unspecified),EC50,[1],> 195 µM (not active)
COc1cccc(-c2nccc(NCc3cccc(C)c3)n2)c1,AC50,Cytochrome P450 2C9,1.58 µM (inconclusive)
Nc1ncnc2c1ncn2[C@@H]1O[C@H](CO)C[C@@H]1O,EC50,[2],0.531 µM (active)
same,EC50,[3],> 60 µM (not active)
S=C(Nc1ccc(Oc2ccccc2)cc1)NC1CCCCCC1,AC50,[4],5.01 µM (active)
CC(=O)Nc1ccc2nc(NC(=O)c3ccc([N+](=O)[O-])s3)sc2c1,EC50,[2],0.993 µM (active)
same,EC50,[3],> 60 µM (not active)
CCOc1ccc(CN2CCN(Cc3nc4c(s3)CCCC4)CC2CCO)cc1 (stereo unspecified),EC50,[2],0.772 µM (active)
same,EC50,[3],> 60 µM (not active)
O=C(O)CCC(=O)N1CCc2cc(S(=O)(=O)N3CCCCC3)ccc21,AC50,Cytochrome P450 2C9,15.8 µM (inconclusive)
CCN1CCN(c2ccc(S(=O)(=O)N3CCCCC3)cc2NC(=O)Cc2ccccc2F)CC1,EC50,[2],0.235 µM (active)
same,EC50,[3],> 30 µM (not active)
CC(C)(C)S(=O)(=O)c1cnc2c(-c3ccc(F)cc3)cnn2c1N,AC50,Cytochrome P450 3A4,7.94 µM (inconclusive)
CN(Cc1nc(-c2ccccc2)no1)C(=O)c1ccc2c(c1)OCO2,EC50,[1],> 195 µM (not active)
O=C(Nc1cccc(F)c1)N1CC[C@@]2(CCCNC2)C1,AC50,Cytochrome P450 3A4,7.94 µM (inconclusive)
CCOc1ccc(C(=O)Nc2ccccc2N2CCCC2)cc1,AC50,Cytochrome P450 2C9,14.1 µM (inconclusive)
COc1ncc2nc(C)c(=O)n(C3CC3)c2n1,AC50,Cytochrome P450 3A4,25.1 µM (inconclusive)
Cc1noc(C)c1COc1cccc(C(=O)Nc2ccc(OCc3ccccc3)cc2)c1,AC50,[4],10.8 µM (active)
Cc1ccc(SC[C@H](C)CN2CC[C@H](C(C)(C)C)CCC2=O)cc1,AC50,[4],1.56 µM (active)
COc1cc(CNCc2c[nH]c3ccccc23)cc(OC)c1,EC50,[2],2.93 µM (active)
same,EC50,[3],> 60 µM (not active)
CCOC(=O)c1c(-c2ccccc2)n(C)c2ccc(O)cc12,EC50,[1],> 195 µM (not active)
O=C(COC(=O)C1C2CC3OC(=O)C1C3C2)Nc1cccc(Cl)c1 (stereo unspecified),EC50,[1],> 195 µM (not active)
O=C(Oc1ccc2c(c1)CN(Cc1ccccc1)CO2)c1ccccc1,AC50,Cytochrome P450 3A4,3.98 µM (inconclusive)
CNC(=O)c1ccsc1NC(=O)c1ccc(S(=O)(=O)N2CCCc3ccccc32)cc1,EC50,[2],2.02 µM (active)
same,EC50,[3],> 60 µM (inconclusive)
COCCCNC(=O)C1CC(=O)N(CCc2ccc(OC)c(OC)c2)C1 (stereo unspecified),AC50,Cytochrome P450 3A4,15.8 µM (inconclusive)
Cc1onc(-c2ccc(Cl)cc2)c1-c1ccnc(SCC(=O)Nc2cc(Cl)cc(Cl)c2)n1,EC50,[2],1.72 µM (active)
same,EC50,[3],> 60 µM (not active)
CCCOc1c(OC)cccc1C1CC(=O)Nc2cc3c(cc21)OCCO3 (stereo unspecified),AC50,[4],1.85 µM (active)
NS(=O)(=O)c1ccc(NC(=O)COC(=O)C2(c3ccccc3F)CCCC2)cc1,EC50,[1],26 µM (active)
Cc1c(C(=O)Nc2ccc(Cl)cc2)c2ccccn2c1C(=O)c1ccc([N+](=O)[O-])cc1,EC50,[2],0.737 µM (active)
same,EC50,[3],> 60 µM (not active)
Cn1c(CN2CCCC(C(=O)c3ccc4c(c3)OCO4)C2)nc2ccccc21 (stereo unspecified),EC50,[2],1.35 µM (active)
same,EC50,[3],> 60 µM (inconclusive)
CCN(CC)C(=O)N[C@@H]1C[C@H]2c3cccc4[nH]cc(c34)C[C@@H]2N(C)C1,AC50,Cytochrome P450 3A4,6.31 µM (inconclusive) and 3.98 µM (inconclusive)
COc1ccccc1Oc1ccc2c(c1)C(=O)N(c1ccc(Br)c3cccnc13)C2=O,EC50,[1],> 195 µM (not active)
